Experimental data taken from ChEMBL document CHEMBL1134508, “3-(4-aroyl-1H-pyrrol-2-yl)-N-hydroxy-2-propenamides, a new class of synthetic histone deacetylase inhibitors” (J Med Chem, 2001).
Square brackets hold non-standard residues; d marks the D form. Peptide text beside a SMILES is read from it. Aoe = N[C@@H](CCCCCC(=O)[C@@H]1CO1)C(=O)O

These molecules were tested against T1, Histone deacetylase HD2 (Zea mays) (UniProt Q94F81) (assay: Percent inhibition of histone deacetylase activity at 30 uM).
T1 sequence (whole entry): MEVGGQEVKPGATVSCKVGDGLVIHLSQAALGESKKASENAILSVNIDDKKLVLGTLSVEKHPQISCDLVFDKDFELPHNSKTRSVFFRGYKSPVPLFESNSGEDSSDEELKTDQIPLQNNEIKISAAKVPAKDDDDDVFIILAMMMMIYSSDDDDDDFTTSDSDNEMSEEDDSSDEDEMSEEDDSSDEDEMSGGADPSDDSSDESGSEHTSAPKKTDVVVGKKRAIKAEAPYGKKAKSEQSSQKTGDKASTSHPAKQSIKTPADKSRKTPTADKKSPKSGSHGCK

SMILES	inhibition [%]
Cn1cc(C(=O)c2ccc(Cl)cc2)cc1/C=C/C(=O)NO	87
COc1ccc(C(=O)c2cc(/C=C/C(=O)NO)n(C)c2)cc1	75.2
Cn1cc(C(=O)c2ccccc2)cc1CCC(=O)NO	45
Cn1cc(C(=O)c2ccccc2)cc1/C=C/C(=O)NCCO	0.9
Cn1cc(C(=O)c2ccc(F)cc2)cc1/C=C/C(=O)NO	84
Cc1ccc(C(=O)c2cc(/C=C/C(=O)NO)n(C)c2)cc1	86.4
Cn1cc(C(=O)c2ccccc2)cc1/C=C/C(=O)NN	0.2
Cn1cc(C(=O)c2ccc([N+](=O)[O-])cc2)cc1/C=C/C(=O)NO	78
Cn1cc(C(=O)c2ccccc2)cc1/C=C/C(=O)NO	86
CN(C)c1ccc(C(=O)c2cc(/C=C/C(=O)NO)n(C)c2)cc1	88

Each molecule was assayed against T2, Histone deacetylase HD2 (Zea mays, UniProt Q94F81) (assay: Inhibitory concentration against histone deacetylase activity).
T2 sequence (Q94F81 whole entry): T1 sequence (whole entry)

SMILES	IC50 [µM]
O=C1N[C@@H](Cc2ccccc2)C(=O)N2CCC[C@@H]2C(=O)N[C@@H](CCCCCC(=O)[C@@H]2CO2)C(=O)N[C@H]1Cc1ccccc1 [TRAPOXIN B] (cyclo(FF[dP][Aoe]))	0.01
Cn1cc(C(=O)c2ccc(Cl)cc2)cc1/C=C/C(=O)NO	2.4
COc1ccc(C(=O)c2cc(/C=C/C(=O)NO)n(C)c2)cc1	2.9
Cn1cc(C(=O)c2ccccc2)cc1CCC(=O)NO	36.8
Cn1cc(C(=O)c2ccc(F)cc2)cc1/C=C/C(=O)NO	3.8
Cc1ccc(C(=O)c2cc(/C=C/C(=O)NO)n(C)c2)cc1	1.9
Cn1cc(C(=O)c2ccc([N+](=O)[O-])cc2)cc1/C=C/C(=O)NO	3.9
Cn1cc(C(=O)c2ccccc2)cc1/C=C/C(=O)NO	3.8
CN(C)c1ccc(C(=O)c2cc(/C=C/C(=O)NO)n(C)c2)cc1	2.4

The molecules below were run against T1, Histone deacetylase HD2 (Zea mays) (assay: Percent inhibition of histone deacetylase activity at 5 mM).

SMILES	inhibition [%]
CCCC(=O)[O-].[Na+]	35

The molecules below were run against T2, Histone deacetylase HD2 (assay: Experimental anti-HDAC (anti-histone deacetylase) activity of the compound).

SMILES	Ki [µM]
Cn1cc(C(=O)c2ccc(Cl)cc2)cc1/C=C/C(=O)NO	1.45
COc1ccc(C(=O)c2cc(/C=C/C(=O)NO)n(C)c2)cc1	1.74
Cn1cc(C(=O)c2ccccc2)cc1CCC(=O)NO	0.00437
Cn1cc(C(=O)c2ccc(F)cc2)cc1/C=C/C(=O)NO	2.29
Cc1ccc(C(=O)c2cc(/C=C/C(=O)NO)n(C)c2)cc1	1.12
O=C(CCCCCCC(=O)Nc1ccccc1)NO [VORINOSTAT]	0.132
Cn1cc(C(=O)c2ccc([N+](=O)[O-])cc2)cc1/C=C/C(=O)NO	2.34
Cn1cc(C(=O)c2ccccc2)cc1/C=C/C(=O)NO	2.29
CN(C)c1ccc(C(=O)c2cc(/C=C/C(=O)NO)n(C)c2)cc1	1.45
